Data from patent publication US9999655B2, “Use of MKS inhibitor peptide-containing compositions for treating non-small cell lung cancer with same” (Moerae Matrix, Inc., priority 2015, dated 2018).
Where no end group is shown, it is not given here.

Assays:
[1] = test system: 266 human kinases; type: biochemical; conditions: peptide at 100 μM, 266 human kinases
Description: (§1) Every kinase activity measurement was conducted in duplicate.
(§2) IC50 (half maximal inhibitory concentrations) value for the MK2 inhibitor peptides identified below was determined using Millipore's IC50 Profiler Express service. […] Specifically, in these assays, a positively charged substrate is phosphorylated with a radiolabeled phosphate group from an ATP if the kinase is not inhibited by an inhibitor peptide. The positively charged substrate then is attracted to a negatively charged filter membrane, quantified with a scintillation counter, and compared to a 100% activity control.

[2] = target: Calcium/Calmodulin-Dependent Protein Kinase I (CaMKI) (Homo sapiens, UniProt Q14012); assay: biochemical; conditions: read-out: inhibition of kinase activity of CaMKI
Description: as §1, §2

[3] = target: (Homo sapiens, UniProt Q15746); type: biochemical; conditions: MLCK(h); peptide 100 μM
Description: as §1, §2

[4] = target: Ca2+/calmodulin-dependent protein kinase II (CaMKII); conditions: cited from earlier work
[5] = test system: advanced NSCLC; conditions: patients with advanced NSCLC; P=0.04; cited from earlier work

Calcium/Calmodulin-Dependent Protein Kinase I (CaMKI), sequence (Q14012 whole entry): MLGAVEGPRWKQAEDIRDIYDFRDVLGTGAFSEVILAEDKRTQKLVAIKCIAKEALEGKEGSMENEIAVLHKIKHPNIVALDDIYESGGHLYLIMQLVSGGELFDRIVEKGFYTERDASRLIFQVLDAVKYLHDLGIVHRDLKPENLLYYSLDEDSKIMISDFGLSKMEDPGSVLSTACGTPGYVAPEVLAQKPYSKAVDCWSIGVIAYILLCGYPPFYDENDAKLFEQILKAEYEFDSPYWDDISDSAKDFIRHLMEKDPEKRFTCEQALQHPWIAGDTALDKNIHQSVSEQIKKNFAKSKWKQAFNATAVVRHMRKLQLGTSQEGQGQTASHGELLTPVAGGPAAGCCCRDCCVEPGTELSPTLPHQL
(Homo sapiens, UniProt Q15746), sequence (Q15746 whole entry): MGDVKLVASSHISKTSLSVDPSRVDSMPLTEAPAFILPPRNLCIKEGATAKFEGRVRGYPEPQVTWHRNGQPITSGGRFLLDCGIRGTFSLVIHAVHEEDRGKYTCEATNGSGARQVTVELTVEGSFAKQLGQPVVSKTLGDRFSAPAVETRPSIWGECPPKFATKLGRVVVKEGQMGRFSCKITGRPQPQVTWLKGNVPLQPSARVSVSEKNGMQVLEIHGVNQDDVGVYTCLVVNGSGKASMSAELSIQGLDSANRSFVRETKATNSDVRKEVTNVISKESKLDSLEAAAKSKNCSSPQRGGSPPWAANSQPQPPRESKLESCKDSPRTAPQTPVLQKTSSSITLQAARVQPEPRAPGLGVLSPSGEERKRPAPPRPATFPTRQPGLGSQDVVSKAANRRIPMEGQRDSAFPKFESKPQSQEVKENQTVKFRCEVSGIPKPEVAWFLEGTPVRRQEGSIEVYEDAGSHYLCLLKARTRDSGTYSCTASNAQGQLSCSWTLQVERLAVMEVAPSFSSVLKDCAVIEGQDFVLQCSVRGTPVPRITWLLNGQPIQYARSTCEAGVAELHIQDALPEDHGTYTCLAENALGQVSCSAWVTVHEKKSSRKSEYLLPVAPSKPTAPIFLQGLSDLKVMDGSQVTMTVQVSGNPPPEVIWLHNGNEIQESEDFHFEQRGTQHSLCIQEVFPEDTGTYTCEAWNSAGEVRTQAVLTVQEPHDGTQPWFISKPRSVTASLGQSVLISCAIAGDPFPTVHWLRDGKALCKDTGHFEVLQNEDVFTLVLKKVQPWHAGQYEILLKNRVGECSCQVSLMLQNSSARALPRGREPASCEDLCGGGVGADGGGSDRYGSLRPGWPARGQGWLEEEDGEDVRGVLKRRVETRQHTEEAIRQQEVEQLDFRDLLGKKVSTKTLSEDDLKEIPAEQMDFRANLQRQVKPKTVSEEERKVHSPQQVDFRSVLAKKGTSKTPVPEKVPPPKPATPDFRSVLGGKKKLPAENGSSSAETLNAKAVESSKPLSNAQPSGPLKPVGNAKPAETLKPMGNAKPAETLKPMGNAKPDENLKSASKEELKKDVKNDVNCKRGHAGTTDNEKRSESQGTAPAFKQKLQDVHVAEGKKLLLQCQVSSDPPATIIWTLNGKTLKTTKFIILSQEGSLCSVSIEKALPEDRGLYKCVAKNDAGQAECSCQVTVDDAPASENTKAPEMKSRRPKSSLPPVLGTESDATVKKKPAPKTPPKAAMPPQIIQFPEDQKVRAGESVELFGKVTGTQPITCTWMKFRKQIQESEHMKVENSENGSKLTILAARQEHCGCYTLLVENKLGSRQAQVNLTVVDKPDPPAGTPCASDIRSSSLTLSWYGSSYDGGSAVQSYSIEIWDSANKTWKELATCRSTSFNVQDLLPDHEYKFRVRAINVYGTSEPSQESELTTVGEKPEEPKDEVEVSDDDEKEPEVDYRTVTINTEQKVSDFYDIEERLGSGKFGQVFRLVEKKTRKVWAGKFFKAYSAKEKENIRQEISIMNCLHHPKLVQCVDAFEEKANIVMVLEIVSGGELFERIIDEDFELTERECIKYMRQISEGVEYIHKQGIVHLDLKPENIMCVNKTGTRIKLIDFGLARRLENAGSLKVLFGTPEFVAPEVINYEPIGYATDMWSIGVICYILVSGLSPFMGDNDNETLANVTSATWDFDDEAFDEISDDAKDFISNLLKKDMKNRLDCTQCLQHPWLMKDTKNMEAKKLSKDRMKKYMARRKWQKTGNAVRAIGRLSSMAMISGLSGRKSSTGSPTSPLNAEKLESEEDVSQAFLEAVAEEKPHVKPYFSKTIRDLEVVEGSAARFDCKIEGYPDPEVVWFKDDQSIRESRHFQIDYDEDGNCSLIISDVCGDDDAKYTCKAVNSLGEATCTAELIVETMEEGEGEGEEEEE

| Substance | off-target kinase inhibition (specificity) [1] | also measured |
| --- | --- | --- |
| FAKLAARLYRKALARQLGVAA [MMI-0300] | very limited off-target kinase inhibition | – |
| HRRIKAWLKKIKALARQLGVAA (Mammalian) [MMI-0500] | very limited off-target kinase inhibition | – |
| KAFAKLAARLYRKALARQLGVAA [MMI-0400] | very limited off-target kinase inhibition | – |
| YARAAARQARAKALARQLGVAA [MMI-0100] | – | inhibition at 100 µM [2]: > 65%; % activity [3]: 85% |
| YARAAARQARAKALNRQLGVA (Mammalian) [MMI-0200] | very limited off-target kinase inhibition | – |
| autocamtide-2 related inhibitory peptide [AIP] | – | IC50 [4]: 100 nM |
| cisplatin/vinorelbine | – | overall survival [5]: 10.1 months |
